From patent US7777030B2, “Compositions and methods for the treatment and prevention of disease” (Centre National de la Recherge Scientifique (CNRS), priority 2005, dated 2010)

Assays:
[1] = system: malaria liver stage (LS) parasites; assay: effect on sporozoite invasion and malaria liver stage development in hepatocytes; type: cell-based; details: compounds added at sporozoite invasion and during liver stage development; schizonts counted in 48 hours cultures; FIG. 5
[2] = system: primary mouse hepatocyte culture; assay: toxicity on primary mouse hepatocyte culture; type: cell-based; details: tested at different doses (6, 25-100 μg/ml)

| Compound | effect on liver parasites / LS development (schizont number) [1] | toxicity on primary mouse hepatocyte culture [2] |
| --- | --- | --- |
| CN1CNC(=O)NC(Cc2ccccc2)C1=O (stereo not shown) [4b] | inhibit significantly and repeatedly | non toxic |
| CN1CN(Cc2ccccc2)C(=O)NC(Cc2ccccc2)C1=O (stereo not shown) [8a] | inhibit significantly and repeatedly | non toxic |
